Values of other authors, collected in US12691071B2 (SHANGHAI YONSUN BIOTECHNOLOGY CO., LTD., priority 2021, dated 2026).

For `COC[C@@H](NC(C)=O)C(=O)NCc1ccccc1` [Lacosamide, (2R)-2-acetamido-N-benzyl-3-methoxypropanamide], the “solubility in acetonitrile or ethanol” value (acetonitrile or ethanol) is given as “slightly soluble” and the “solubility in methanol or acetone” value (methanol or acetone) is given as “easily soluble”.
